From US4786638A, “2,4-disubstituted-5-cyano-1,6-dihydro-6-oxo-1-pyrimidineacetic acid aldose reductase inhibitors” (American Home Products Corporation, priority 1987, dated 1988)
Read-outs that look alike come from different tables or passages of the source.

Assays:
[1] = biological target: T1, aldose reductase (Bos taurus, UniProt P16116); experiment: In vitro aldose reductase inhibition (modified Hayman and Kinoshita procedure; enzyme from bovine lens); type: biochemical; conditions: for inhibition at 10 µM: read-out: % Inhibition IN VITRO 10^-5 M; for inhibition at 1 µM: read-out: % Inhibition IN VITRO 10^-6 M; for inhibition at 0.1 µM: read-out: % Inhibition IN VITRO 10^-7 M
T1 construct: preparation of the enzyme from bovine lens; from tissue; host or cells: bovine lens
Source text: In the present case the procedure of Hayman and Kinoshita was modified in that the final chromatography step was omitted in the preparation of the enzyme from bovine lens.

[2] = system: galactitol accumulation in the tissues of the lens, sciatic nerve, and diaphragm; experiment: Galactosemic rats: lowering of dulcitol (galactitol) accumulation in lens, sciatic nerve and diaphragm; type: in vivo, Male Sprague-Dawley rats; conditions: for % Lowering dulcitol accumulation IN VIVO, D: diaphragm
Experimental: Such experiments are exemplified hereinbelow after the listing of the following general comments pertaining to these experiments:
Male Sprague-Dawley rats, weighing approximately 90 grams were separated into groups of equal average body weight, with six animals per group. The animals were housed in cages of six animals each and maintained on 12 hour night/12 hour day cycles. Except as otherwise noted, the animals were given food and water ad libitum.
On day 1, the galactosemic control group and all drug-treated groups were given access to 20% galactose chow (Bio-Serv, Frenchtown, N.J.). Animals in the control group were given access to 20% glucose chow (Bio-Serv). Test compounds were administered either in the diet or by gavage as a suspension in 2% Tween 80 in saline. In experiments in which gavage dosing was used, the animals were administered the test compound daily at approximately the same hour each day. Food intake and body weight were determined twice during the course of the experiment. In cases in which the compound was administered in the diet, the average dose was calculated on the basis of the actual average food intake during the experiment.
On the morning of day 5, all animals were fasted; beginning two hours later the animals were decapitated and the lenses, sciatic nerves, and a 50-100 mg portion of the diaphragm were removed, weighed, and frozen in porcelain plates on dry ice.
Only two minor reagent changes were made: (a) the rinsing mixture was an aqueous 5% (w/v) trichloroacetic acid solution and (b) the stock solution was prepared by dissolving 25 mg of dulcitol in 100 mL of an aqueous trichloroacetic acid solution [N.B.: For each experiment the average value found in the tissue from rats fed the glucose diet was subtracted from the individual values found in the corresponding tissue in galactose-fed rats to obtain the amount of polyol accumulated.]
The figures under L, N and D represent the percentage decrease of galactitol accumulation in the tissues of the lens, sciatic nerve, and diaphragm, respectively for treated rats as compared to untreated rats.

[3] = system: aldose reductase; conditions: reported by K. Sestanj et al., U.S. Pat. No. 4,568,693; cited from earlier work
[4] = 20% galactose diet, mg/kg by Example: 1:90, 2:128, 3:141, 4:93, 5:121, 6:110, 7:123, 8:87, 9:92, 10:102, 11:71, 12:84, 13:93, 14:112, 16:100, 17:100, 18:128, 19:117, 20:140, 21:103, 22:151, tolrestat:6
[5] = lens, 20% galactose diet, mg/kg by Example: 1:90, 2:128, 3:141, 4:93, 5:121, 6:110, 7:123, 8:87, 9:92, 10:102, 11:71, 12:84, 13:93, 14:112, 16:100, 17:100, 18:128, 19:117, 20:140, 21:103, 22:151, tolrestat:6

| Structure (SMILES) | inhibition at 10 µM [1] [%] | inhibition at 1 µM [1] [%] | inhibition at 0.1 µM [1] [%] | % Lowering dulcitol accumulation IN VIVO, D [2, 4] | % Lowering dulcitol accumulation IN VIVO, L [2, 5] | % Lowering dulcitol accumulation IN VIVO, L [2] | % Lowering dulcitol accumulation IN VIVO, D ([2]; 98 mg/kg) | % Lowering dulcitol accumulation IN VIVO, D ([2]; 196 mg/kg) | % Lowering dulcitol accumulation IN VIVO, L ([2]; lens, 98 mg/kg) | % Lowering dulcitol accumulation IN VIVO, L ([2]; lens, 196 mg/kg) | inhibitor of aldose reductase (in words) [3] |
| --- | --- | --- | --- | --- | --- | --- | --- | --- | --- | --- | --- |
| Cc1nc(-c2cccc3ccccc23)n(CC(=O)O)c(=O)c1C#N [Example 21, 5-cyano-1,6-dihydro-4-methyl-2-(1-naphthalenyl)-6-oxo-1-pyrimidineacetic acid] | 87 | 55 | 14 | N.S. | 18% |  |  |  |  |  |  |
| CC(C)Sc1nc(C(C)C)n(CC(=O)O)c(=O)c1C#N [Example 9] | 96 | 97 | 91 | 16% | N.S. |  |  |  |  |  |  |
| N#Cc1c(Cc2cccc3ccccc23)nc(-c2cccc3c(Br)cccc23)n(CC(=O)O)c1=O [Example 22] | 93 | 85 | 46 | N.S. | N.S. |  |  |  |  |  |  |
| N#Cc1c(-c2ccccc2)nc(-c2cccc3c(Br)cccc23)n(CC(=O)O)c1=O [Example 20, 5-Cyano-1,6-dihydro-2-(5-bromo-1-naphthalenyl)-6-oxo-4-phenyl-1-pyrimidineacetic Acid] | 82 | 71 | 22 | N.S. | N.S. |  |  |  |  |  |  |
| CSc1nc(C2CCCCC2)n(CC(=O)O)c(=O)c1C#N [Example 1, 5-Cyano-2-cyclohexyl-1,6-dihydro-4-(methylthio)-6-oxo-1-pyrimidineacetic Acid] |  |  |  | 42% |  | N.S. |  |  |  |  |  |
| Cc1nc(N2CCCCC2)c(C#N)c(=O)n1CC(=O)O [Example 13] | 88 | 75 | 52 | N.S. | N.S. |  |  |  |  |  |  |
| CCCCCCSc1nc(C2CCCCC2)n(CC(=O)O)c(=O)c1C#N [Example 5] | 94 | 95 | 96 | N.S. | N.S. |  |  |  |  |  |  |
| N#Cc1c(SCC2CCCCC2)nc(C2CCCCC2)n(CC(=O)O)c1=O [Example 7] | 96 | 95 | 90 | N.S. | N.S. |  |  |  |  |  |  |
| CC(C)c1nc(SCc2ccccc2)c(C#N)c(=O)n1CC(=O)O [Example 10] | 96 | 98 | 94 | 38% | N.S. |  |  |  |  |  |  |
| Cc1nc(NCCc2ccccc2)c(C#N)c(=O)n1CC(=O)O [Example 15] | 89 | 88 | 71 |  |  |  | N.S. | N.S. | N.S. | N.S. |  |
| CSc1nc(C(C)C)n(CC(=O)O)c(=O)c1C#N [Example 8] | 96 | 96 | 94 | N.S. | N.S. |  |  |  |  |  |  |
| Cc1nc(N2CCN(Cc3ccccc3)CC2)c(C#N)c(=O)n1CC(=O)O [Example 14] | 92 | 89 | 64 | N.S. | N.S. |  |  |  |  |  |  |
| N#Cc1c(SCc2ccc(Br)cc2)nc(C2CCCCC2)n(CC(=O)O)c1=O [Example 3] | 96 | 96 | 93 | N.S. | N.S. |  |  |  |  |  |  |
| Cc1nc(NCc2cccnc2)c(C#N)c(=O)n1CC(=O)O [Example 12, 5-Cyano-1,6-dihydro-2-methyl-6-oxo-4-[(3-pyridinylmethyl)amino]-1-pyrimidineacetic Acid] | 88 | 90 | 30 | N.S. | N.S. |  |  |  |  |  |  |
| CC(C)Sc1nc(C2CCCCC2)n(CC(=O)O)c(=O)c1C#N [Example 6] | 93 | 92 | 90 | N.S. | N.S. |  |  |  |  |  |  |
| Cc1nc(NCc2ccccc2)c(C#N)c(=O)n1CC(=O)O [Example 17] | 96 | 90 | 78 | N.S. | N.S. |  |  |  |  |  |  |
| Cc1nc(NCC2CCCCC2)c(C#N)c(=O)n1CC(=O)O [Example 16] | 93 | 91 | 72 | N.S. | N.S. |  |  |  |  |  |  |
| CSc1nc(C)n(CC(=O)O)c(=O)c1C#N [Example 11, 5-Cyano-1,6-dihydro-2-methyl-4-(methylthio)-6-oxo-1-pyrimidineacetic Acid] | 86 | 84 | 74 | N.S. | N.S. |  |  |  |  |  |  |
| N#Cc1c(SCc2ccccc2)nc(C2CCCCC2)n(CC(=O)O)c1=O [Example 2] | 97 | 96 | 91 | N.S. | N.S. |  |  |  |  |  |  |
| N#Cc1c(SCc2ccc(Br)cc2F)nc(C2CCCCC2)n(CC(=O)O)c1=O [Example 4, 4-[[(4-bromo-2-fluorophenyl)methyl]thio]-5-cyano-2-cyclohexyl-1,6-dihydro-6-oxo-1-pyrimidineacetic acid] |  |  |  | N.S. | 15% |  |  |  |  |  |  |
| N#Cc1c(-c2ccccc2)nc(-c2cccc3ccccc23)n(CC(=O)O)c1=O [Example 19] | 84 | 68 | 29 | 21% | N.S. |  |  |  |  |  |  |
| Cc1nc(N2CCC(Cc3ccccc3)CC2)c(C#N)c(=O)n1CC(=O)O [Example 18] | 90 | 88 | 81 | N.S. | N.S. |  |  |  |  |  |  |
| COc1ccc2c(C(=S)N(C)CC(=O)O)cccc2c1C(F)(F)F [tolrestat, N-[[6-methoxy-5-(trifluoromethyl)-1-naphthalenyl]-thioxomethyl]-N-methylglycine, reference compound] |  |  |  | 90% | N.S. |  |  |  |  |  | effective inhibitor of aldose reductase |
